Source: patent US20070208085A1 (SOMANTA LIMITED, priority 2006, published 2007)
Read-outs that look alike come from different tables or passages of the source.

Columns and labels:
NCI human cell lines = assay: NCI human cell line panel, mean over cell lines; assay type: cell-based; details: mean against the NCI human cell lines (28 tested)
Description: (§1) To identify the activity of the compound of formula IV in additional cell lines, an NCI human cell line panel was screened for sensitivity to the compound. Cytotoxicity was evaluated for chloroethylaminoanthraquinone compounds synthesized as described in EXAMPLE 1, using an in vitro cell based assay as described in Pors et al., Mol. Cancer Ther., 2:607-610 (2003).
(§2) Human tumor cell lines from the NCI human cell line panel (Table 2) were tested in the assay.
(§3) Growth inhibition was determined, and was expressed as the concentration (nM) required to inhibit cell growth by 50% (IG50). […] In particular, excellent activity was observed against CNS, colon, NSCLC and renal cancer cell lines. […] Standard methods were used for MTT results (Monks A et. al., J. Natl Cancer Inst. 1991 June 5;83(11):757-66).

HS 578T = assay: NCI human cell line panel cytotoxicity; assay type: cell-based; details: Breast
Description: as §1, §2, §3

LOX IMVI = assay: NCI human cell line panel cytotoxicity; assay type: cell-based; details: Melanoma
Description: as §1, §2, §3

HCT-15 = assay: NCI human cell line panel cytotoxicity; assay type: cell-based; details: Colon
Description: as §1, §2, §3

SN12C = assay: NCI human cell line panel cytotoxicity; assay type: cell-based; details: Renal
Description: as §1, §2, §3

A549/ATCC = assay: NCI human cell line panel cytotoxicity; assay type: cell-based; details: NSCLC
Description: as §1, §2, §3

U251 = assay: NCI human cell line panel cytotoxicity; assay type: cell-based; details: U-251, CNS
Description: as §1, §2, §3

ACHN = assay: NCI human cell line panel cytotoxicity; assay type: cell-based; details: Renal
Description: as §1, §2, §3

EKVX = assay: NCI human cell line panel cytotoxicity; assay type: cell-based; details: NSCLC
Description: as §1, §2, §3

HT-29 = assay: NCI human cell line panel cytotoxicity; assay type: cell-based; details: Colon
Description: as §1, §2, §3

786-0 = assay: NCI human cell line panel cytotoxicity; assay type: cell-based; details: Renal
Description: as §1, §2, §3

SK MEL 5 = assay: NCI human cell line panel cytotoxicity; assay type: cell-based; details: Melanoma
Description: as §1, §2, §3

RPMI 8226 = assay: NCI human cell line panel cytotoxicity; assay type: cell-based; details: Leuk
Description: as §1, §2, §3

TK10 = assay: NCI human cell line panel cytotoxicity; assay type: cell-based; details: TK-10, Renal
Description: as §1, §2, §3

NCI-H460 = assay: NCI human cell line panel cytotoxicity; assay type: cell-based; details: NSCLC
Description: as §1, §2, §3

NCI-H322M = assay: NCI human cell line panel cytotoxicity; assay type: cell-based; details: NSCLC
Description: as §1, §2, §3

UACC-257 = assay: NCI human cell line panel cytotoxicity; assay type: cell-based; details: Melanoma
Description: as §1, §2, §3

SF 268 = assay: NCI human cell line panel cytotoxicity; assay type: cell-based; details: CNS
Description: as §1, §2, §3

HCT-116 = assay: NCI human cell line panel cytotoxicity; assay type: cell-based; details: Colon
Description: as §1, §2, §3

PC3 = assay: NCI human cell line panel cytotoxicity; assay type: cell-based; details: PC-3, Prostate
Description: as §1, §2, §3

MDA-MB-435 = assay: NCI human cell line panel cytotoxicity; assay type: cell-based; details: Breast
Description: as §1, §2, §3

MCF7 = assay: NCI human cell line panel cytotoxicity; assay type: cell-based; details: Breast
Description: as §1, §2, §3

MDA-MB-231/ATCC = assay: NCI human cell line panel cytotoxicity; assay type: cell-based; details: Breast
Description: as §1, §2, §3

UACC-62 = assay: NCI human cell line panel cytotoxicity; assay type: cell-based; details: Melanoma
Description: as §1, §2, §3

DU145 = assay: NCI human cell line panel cytotoxicity; assay type: cell-based; details: DU-145, Prostate
Description: as §1, §2, §3

KM 12 = assay: NCI human cell line panel cytotoxicity; assay type: cell-based; details: KM12, Colon
Description: as §1, §2, §3

SF 539 = assay: NCI human cell line panel cytotoxicity; assay type: cell-based; details: CNS
Description: as §1, §2, §3

NCI-H226 = assay: NCI human cell line panel cytotoxicity; assay type: cell-based; details: NSCLC
Description: as §1, §2, §3

BT549 = assay: NCI human cell line panel cytotoxicity; assay type: cell-based; details: BT-549, Breast
Description: as §1, §2, §3

[1] = tested on: human osteosarcoma cell line (U-2 OS); assay: Cell cycle events by flow cytometry and timelapse, cyclin B1-GFP reporter; assay type: cell-based; details: U2-OS
Description: The U2 OS cells were stably transfected with a Green Fluorescent Protein tagged Cyclin B1 reporter and maintained at 37° C. and 5% CO2 in McCoys 5A modified medium (Sigma) supplemented with 2 mM glutamine, 100 units/ml penicillin, 100 μg/ml streptomycin, 10% fetal calf serum and 1000 μg/ml geneticin. Appropriate dilutions were added to the wells to obtain treatment regimes of 0, 10 and 100 nM of the experimental compound.
The cells were plated in a 6 well plate (density ˜15-20%). Each experiment consisted of the paired drug treatment at the appropriate dose added to the cells and the plate was placed on a stage of an inverted microscope in a sealed environment (37° C./humidified 5% CO2), and the entire apparatus was situated on a vibration-free table. Three fields were selected per well to triplicate the sampling for each experiment. Images at 10× magnification and were taken every 15 minutes over 3 days using a Cohu cooled CCD camera and the programme AQM Advance 6 to store the images. The images were viewed using the Metamorph programme.
Experimental data derived from the timelapse were analyzed by comparing the morphology of the cells and the relative growth rates per treatment regimen. This was achieved by counting the number of live cells per field every 12 hours (since a normal cell has a generation time of 24 hours) and plotting the data into relative growth curves. The initial rate of growth (between time points 0-12 and 12-24) was then calculated.
Samples by flow cytometry. U-2 OS cells were treated with the compound in a 6 well plate in an incubator over 2 days. Cells were then extracted from the plate, and Draq5 added to stain the DNA before they were analyzed using a Becton Dickinson FACS Vantage flow cytometer. The flow data was gated for intact cells, and the DRAQ5 levels (indicator of DNA content) were extracted.
DNA content and Cyclin B1 expression were measured using flow cytometry and a p53 functional human osteosarcoma cell line (U2-OS) as described above.

[2] = tested on: doxorubicin-resistant and cisplatin-resistant tumor cell lines; details: cited from earlier work
[3] = tested on: A2780 human ovarian carcinoma cell line; details: cited from earlier work

## CN(C)CCNc1ccc(NCCN(CCCl)CCCl)c2c1C(=O)c1c(O)ccc(O)c1C2=O [Compound IV]
NCI human cell lines
  IC50: 49 nM
HS 578T; read-out: IC50 nM
  IC50: 525 nM
HS 578T; read-out: IC50
  IC50: 525 nM
HS 578T; read-out: Log IC50 (converted)
  IC50: 525 nM
LOX IMVI; read-out: IC50 nM
  IC50: < 10 nM
LOX IMVI; read-out: IC50
  IC50: < 10 nM
LOX IMVI; read-out: Log IC50 (converted)
  IC50: ≤ 10 nM
HCT-15; read-out: IC50 nM
  IC50: < 10 nM
HCT-15; read-out: IC50
  IC50: < 10 nM
HCT-15; read-out: Log IC50 (converted)
  IC50: ≤ 10 nM
SN12C; read-out: IC50 nM
  IC50: 27 nM
SN12C; read-out: IC50
  IC50: 26.9 nM
SN12C; read-out: Log IC50 (converted)
  IC50: 26.9 nM
A549/ATCC; read-out: IC50 nM
  IC50: 27 nM
A549/ATCC; read-out: IC50
  IC50: 26.9 nM
A549/ATCC; read-out: Log IC50 (converted)
  IC50: 26.9 nM
U251; read-out: IC50 nM
  IC50: 19 nM
U251; read-out: IC50
  IC50: 19.1 nM
U251; read-out: Log IC50 (converted)
  IC50: 19.1 nM
ACHN; read-out: IC50 nM
  IC50: < 10 nM
ACHN; read-out: IC50
  IC50: < 10 nM
ACHN; read-out: Log IC50 (converted)
  IC50: ≤ 10 nM
EKVX; read-out: IC50 nM
  IC50: 759 nM
EKVX; read-out: IC50
  IC50: 759 nM
EKVX; read-out: Log IC50 (converted)
  IC50: 759 nM
HT-29; read-out: IC50 nM
  IC50: < 10 nM
HT-29; read-out: IC50
  IC50: < 10 nM
HT-29; read-out: Log IC50 (converted)
  IC50: ≤ 10 nM
786-0; read-out: IC50 nM
  IC50: < 10 nM
786-0; read-out: IC50
  IC50: < 10 nM
786-0; read-out: Log IC50 (converted)
  IC50: ≤ 10 nM
SK MEL 5; read-out: IC50 nM
  IC50: 71 nM
SK MEL 5; read-out: IC50
  IC50: 70.8 nM
SK MEL 5; read-out: Log IC50 (converted)
  IC50: 70.8 nM
RPMI 8226; read-out: IC50 nM
  IC50: < 10 nM
RPMI 8226; read-out: IC50
  IC50: < 10 nM
RPMI 8226; read-out: Log IC50 (converted)
  IC50: ≤ 10 nM
TK10; read-out: IC50 nM
  IC50: 407 nM
TK10; read-out: IC50
  IC50: 407 nM
TK10; read-out: Log IC50 (converted)
  IC50: 407 nM
NCI-H460; read-out: IC50 nM
  IC50: < 10 nM
NCI-H460; read-out: IC50
  IC50: < 10 nM
NCI-H460; read-out: Log IC50 (converted)
  IC50: ≤ 10 nM
NCI-H322M; read-out: IC50 nM
  IC50: 295 nM
NCI-H322M; read-out: IC50
  IC50: 295 nM
NCI-H322M; read-out: Log IC50 (converted)
  IC50: 295 nM
UACC-257; read-out: IC50 nM
  IC50: 1860 nM
UACC-257; read-out: IC50
  IC50: 1860 nM
UACC-257; read-out: Log IC50 (converted)
  IC50: 1860 nM
SF 268; read-out: IC50 nM
  IC50: < 10 nM
SF 268; read-out: IC50
  IC50: < 10 nM
SF 268; read-out: Log IC50 (converted)
  IC50: ≤ 10 nM
HCT-116; read-out: IC50 nM
  IC50: < 10 nM
HCT-116; read-out: IC50
  IC50: < 10 nM
HCT-116; read-out: Log IC50 (converted)
  IC50: ≤ 10 nM
PC3; read-out: IC50 nM
  IC50: 50 nM
PC3; read-out: IC50
  IC50: 50.1 nM
PC3; read-out: Log IC50 (converted)
  IC50: 50.1 nM
MDA-MB-435; read-out: IC50 nM
  IC50: 21 nM
MDA-MB-435; read-out: IC50
  IC50: 20.9 nM
MDA-MB-435; read-out: Log IC50 (converted)
  IC50: 20.9 nM
MCF7; read-out: IC50 nM
  IC50: < 10 nM
MCF7; read-out: IC50
  IC50: < 10 nM
MCF7; read-out: Log IC50 (converted)
  IC50: ≤ 10 nM
MDA-MB-231/ATCC; read-out: IC50 nM
  IC50: 100 nM
MDA-MB-231/ATCC; read-out: IC50
  IC50: 100 nM
MDA-MB-231/ATCC; read-out: Log IC50 (converted)
  IC50: 100 nM
UACC-62; read-out: IC50 nM
  IC50: 219 nM
UACC-62; read-out: IC50
  IC50: 219 nM
UACC-62; read-out: Log IC50 (converted)
  IC50: 219 nM
DU145; read-out: IC50 nM
  IC50: 50 nM
DU145; read-out: IC50
  IC50: 50.1 nM
DU145; read-out: Log IC50 (converted)
  IC50: 50.1 nM
KM 12; read-out: IC50 nM
  IC50: 138 nM
KM 12; read-out: IC50
  IC50: 138 nM
KM 12; read-out: Log IC50 (converted)
  IC50: 138 nM
SF 539; read-out: IC50 nM
  IC50: < 10 nM
SF 539; read-out: IC50
  IC50: < 10 nM
SF 539; read-out: Log IC50 (converted)
  IC50: ≤ 10 nM
NCI-H226; read-out: IC50 nM
  IC50: 54 nM
NCI-H226; read-out: IC50
  IC50: 53.7 nM
NCI-H226; read-out: Log IC50 (converted)
  IC50: 53.7 nM
BT549; read-out: IC50 nM
  IC50: 2040 nM
BT549; read-out: IC50
  IC50: 2040 nM
BT549; read-out: Log IC50 (converted)
  IC50: 2040 nM
[1]
  G2 arrest: limited expression of G2 arrest
  polyploidy on escape from G2 arrest (B1 cyclin tracking): forced some cells to enter polyploidy via an aberrant mitosis
[1]; compared to untreated cells
  pan-cell cycle progression and mitotic commitment: slowed pan-cell cycle progression and mitotic commitment
[1]; immediate (<24 h)
  induction of apoptosis: without any immediate (<24 h) induction of apoptosis
[2]; Pors et al., 2003
  cellular drug resistance: very low resistance
[2]; doxorubicin-resistant and cisplatin-resistant tumor cell lines, in vitro
  cytotoxicity against resistant cell lines: maintained potent cytotoxicity
[2]; fold less resistant, Pors et al., 2003
  resistance relative to doxorubicin: 250 fold
[2]; fold less, Pors et al., 2003
  resistance relative to the other chloroethylaminoanthraquinones tested: 20-150 fold
[3]
  cytotoxicity: potent cytotoxicity
